Results as given in patent US11464770B2, “Anticancer pharmaceutical composition” (NATIONAL CANCER CENTER, priority 2016, dated 2022).
Read-outs that look alike come from different tables or passages of the source.

Legend:
liver cancer cell lines = assay: Cell based assay, cell viability (CellTiter-Glo), liver cancer cell lines; conditions: Homo sapiens, SK-HEP1; SK-HEP-1 cell line
Procedure: (§1) Commercially available bladder cancer, prostate cancer, lung cancer, breast cancer, blood cancer, pancreatic cancer, colorectal cancer, brain cancer, neuroblastoma, melanoma, liver cancer, cervical carcinoma, ovarian cancer, renal cancer, and papilloma cell lines were each treated with trypsin-EDTA and cultured, followed by being seeded in each well of a 96 well plate. After 24 hours of treatment at constant temperature, the respective cells were treated with the candidate compound so that a final concentration became 0 to 2 μM. The treated cells were additionally cultured for 72 hours, and cell viability was measured by using an ATP detection method (CellTiter-Glo® Luminescent Cell Viability Assay, Promega).

[1] = tested on: colorectal cancer cell lines (e.g. DLD-1, HCT 116, SW620, HCT-15, HCT-8, RKO); assay: Cell based assay, cell viability (CellTiter-Glo), colorectal cancer cell lines
Procedure: as §1

[2] = Homo sapiens, DLD-1, 72 hours treatment, read-out: IC50, colorectal cancer cell line DLD-1
[3] = Homo sapiens, HCT 116, 72 hours treatment, read-out: IC50, colorectal cancer cell line HCT 116
[4] = Homo sapiens, HCT-8, 72 hours treatment, read-out: IC50, colorectal cancer cell line HCT-8
[5] = Homo sapiens, HCT-15, 72 hours treatment, read-out: IC50, colorectal cancer cell line HCT-15
[6] = Homo sapiens, HT-29, 72 hours treatment, read-out: IC50, colorectal cancer cell line HT-29
[7] = Homo sapiens, LoVo, 72 hours treatment, read-out: IC50, colorectal cancer cell line LoVo
[8] = Homo sapiens, SW480, 72 hours treatment, read-out: IC50, colorectal cancer cell line SW480
[9] = Homo sapiens, SW-620, SW620, 72 hours treatment, read-out: IC50, colorectal cancer cell line SW620
[10] = RKO, 72 hours treatment, read-out: IC50, colorectal cancer cell line RKO
[11] = Homo sapiens, DLD-1 cells, 72 hours treatment, read-out: IC50, colorectal cancer cell line DLD-1
[12] = Homo sapiens, HCT 116 cells, 72 hours treatment, read-out: IC50, colorectal cancer cell line HCT 116
[13] = Homo sapiens, HCT-8 cells, 72 hours treatment, read-out: IC50, colorectal cancer cell line HCT-8
[14] = Homo sapiens, HCT-15 cells, 72 hours treatment, read-out: IC50, colorectal cancer cell line HCT-15
[15] = Homo sapiens, HT-29 cells, 72 hours treatment, read-out: IC50, colorectal cancer cell line HT-29
[16] = Homo sapiens, LoVo cells, 72 hours treatment, read-out: IC50, colorectal cancer cell line LoVo
[17] = Homo sapiens, RKO cells, 72 hours treatment, read-out: IC50, colorectal cancer cell line RKO
[18] = Homo sapiens, SW480 cells, 72 hours treatment, read-out: IC50, colorectal cancer cell line SW480
[19] = Homo sapiens, SW-620, SW620 cells, 72 hours treatment, read-out: IC50, colorectal cancer cell line SW620

SMILES | IC50 (liver cancer cell lines) | IC50 [1, 2] | IC50 [1, 3] | IC50 [1, 4] | IC50 [1, 5] | IC50 [1, 6] | IC50 [1, 7] | IC50 [1, 8] | IC50 [1, 9] | IC50 [1, 10] | IC50 [1, 11] | IC50 [1, 12] | IC50 [1, 13] | IC50 [1, 14] | IC50 [1, 15] | IC50 [1, 16] | IC50 [1, 17] | IC50 [1, 18] | IC50 [1, 19]
CSc1c(C(C)=O)c(=O)c2c(Cl)ccc(Br)c2n1C [Compound 5, 3-acetyl-8-bromo-5-chloro-1-methyl-2-(methylthio)quinolin-4(1H)-one] | > 2000 nM | > 2000 nM | > 2000 nM | > 2000 nM | > 2000 nM | > 10000 nM | > 2000 nM | > 2000 nM | > 2000 nM | > 2000 nM | – | – | – | – | – | – | – | – | –
CC(=O)c1c([S+]([O-])Cc2cccc(S(F)(F)(F)(F)F)c2)[nH]c2c(Br)ccc(Cl)c2c1=O (stereo not drawn) [Compound 77, 3-acetyl-8-bromo-5-chloro-2-((3-(pentafluoro--sulfanyl)benzyl)sulfinyl)quinolin-4(1H)-one] | 1090 nM | 920 nM | 1450 nM | 1700 nM | 1240 nM | > 10000 nM | > 2000 nM | 1800 nM | 1680 nM | 1290 nM | – | – | – | – | – | – | – | – | –
CC(=O)c1c([S+](C)[O-])n(C(=O)c2ccc(Br)cc2)c2c(Br)ccc(Cl)c2c1=O (stereo not drawn) [Compound 9, 3-acetyl-8-bromo-1-(4-bromobenzoyl)-5-chloro-2-(methylsulfinyl)quinolin-4(1H)-one] | 990 nM | 870 nM | 1050 nM | 1750 nM | 1240 nM | > 10000 nM | > 2000 nM | 1280 nM | 1360 nM | 1930 nM | – | – | – | – | – | – | – | – | –
CC(=O)c1c([S+](C)[O-])n(C(C)=O)c2c(Br)ccc(Cl)c2c1=O (stereo not drawn) [Compound 19, 1,1′-(8-bromo-5-chloro-2-(methylsulfinyl)-4-oxoquinoline-1,3(4H)-diyl)bis(ethan-1-one)] | > 2000 nM | > 2000 nM | > 2000 nM | > 2000 nM | > 2000 nM | > 10000 nM | > 2000 nM | > 2000 nM | > 2000 nM | > 2000 nM | – | – | – | – | – | – | – | – | –
CC(=O)c1c(S(C)(=O)=O)n(S(=O)(=O)c2ccc(C(C)(C)C)cc2)c2c(Br)ccc(Cl)c2c1=O [Compound 41, 3-acetyl-8-bromo-1-((4-(tert-butyl)phenyl)sulfonyl)-5-chloro-2-(methylsulfonyl)quinolin-4(1H)-one] | > 2000 nM | > 2000 nM | > 2000 nM | > 2000 nM | > 2000 nM | > 10000 nM | > 2000 nM | > 2000 nM | > 2000 nM | > 2000 nM | – | – | – | – | – | – | – | – | –
CC(=O)c1c([S+]([O-])Cc2ccccc2C#N)[nH]c2c(Br)ccc(Cl)c2c1=O (stereo not drawn) [Compound 58, 2-(((3-acetyl-8-bromo-5-chloro-4-oxo-1,4-dihydroquinolin-2-yl)sulfinyl)methyl)benzonitrile] | 780 nM | 770 nM | 1090 nM | 1350 nM | 1100 nM | > 10000 nM | 2020 nM | 1220 nM | 1160 nM | 1120 nM | – | – | – | – | – | – | – | – | –
COc1cccc2[nH]c([S+]([O-])Cc3cc(C)on3)c(C(C)=O)c(=O)c12 (stereo not drawn) [Compound 94, 3-acetyl-5-methoxy-2-(((5-methylisoxazol-3-yl)methyl)sulfinyl)quinolin-4(1H)-one] | > 2000 nM | – | – | – | – | – | – | – | – | – | > 2000 nM | > 2000 nM | > 2000 nM | > 2000 nM | > 10000 nM | > 2000 nM | > 2000 nM | > 2000 nM | > 2000 nM
COc1ccccc1Sc1[nH]c2c(Br)ccc(Cl)c2c(=O)c1C(C)=O [Compound 14, 3-acetyl-8-bromo-5-chloro-2-((2-methoxyphenyl)thio)quinolin-4(1H)-one] | > 2000 nM | > 2000 nM | > 2000 nM | > 2000 nM | > 2000 nM | > 10000 nM | > 2000 nM | > 2000 nM | > 2000 nM | > 2000 nM | – | – | – | – | – | – | – | – | –
CC(=O)c1c(SCc2cccc(I)c2)[nH]c2c(Br)ccc(Cl)c2c1=O [Compound 47, 3-acetyl-8-bromo-5-chloro-2-((3-iodobenzyl)thio)quinolin-4(1H)-one] | > 2000 nM | > 2000 nM | > 2000 nM | > 2000 nM | > 2000 nM | > 10000 nM | > 2000 nM | > 2000 nM | > 2000 nM | > 2000 nM | – | – | – | – | – | – | – | – | –
CC(=O)c1c([S+]([O-])Cc2ccc(SC(F)(F)F)cc2)[nH]c2c(Cl)ccc(Cl)c2c1=O (stereo not drawn) [Compound 79, 3-acetyl-5,8-dichloro-2-((4-((trifluoromethyl)thio)benzyl)sulfinyl)quinolin-4(1H)-one] | > 2000 nM | > 2000 nM | > 2000 nM | > 2000 nM | > 2000 nM | > 10000 nM | > 2000 nM | > 2000 nM | > 2000 nM | > 2000 nM | – | – | – | – | – | – | – | – | –
CC(=O)c1c([S+](C)[O-])[nH]c2c(Br)ccc(Cl)c2c1=O (stereo not drawn) [Compound 1, 3-acetyl-8-bromo-5-chloro-2-(methylsulfinyl)quinolin-4(1H)-one] | 1230 nM | 810 nM | 1670 nM | > 2000 nM | > 2000 nM | > 10000 nM | > 2000 nM | > 2000 nM | > 2000 nM | > 2000 nM | – | – | – | – | – | – | – | – | –
CC(=O)c1c(S(C)(=O)=O)n(C(=O)c2ccc(Br)cc2)c2c(Br)ccc(Cl)c2c1=O [Compound 21, 3-acetyl-8-bromo-1-(4-bromobenzoyl)-5-chloro-2-(methylsulfonyl)quinolin-4(1H)-one] | > 2000 nM | > 2000 nM | > 2000 nM | > 2000 nM | > 2000 nM | > 10000 nM | > 2000 nM | > 2000 nM | > 2000 nM | > 2000 nM | – | – | – | – | – | – | – | – | –
CC(=O)c1c([S+]([O-])Cc2ccc(N)nc2)[nH]c2c(Br)ccc(Cl)c2c1=O (stereo not drawn) [Compound 100, 3-acetyl-2-(((6-aminopyridin-3-yl)methyl)sulfinyl)-8-bromo-5-chloroquinolin-4(1H)-one] | > 2000 nM | – | – | – | – | – | – | – | – | – | > 2000 nM | > 2000 nM | > 2000 nM | > 2000 nM | > 10000 nM | > 2000 nM | > 2000 nM | > 2000 nM | > 2000 nM
CC(=O)c1c([S+]([O-])Cc2ccc(C(F)(F)F)o2)[nH]c2c(F)ccc(F)c2c1=O (stereo not drawn) [Compound 81, 3-acetyl-5,8-difluoro-2-(((5-(trifluoromethyl)furan-2-yl)methyl)sulfinyl)quinolin-4(1H)-one] | > 2000 nM | > 2000 nM | > 2000 nM | > 2000 nM | > 2000 nM | > 10000 nM | > 2000 nM | > 2000 nM | > 2000 nM | > 2000 nM | – | – | – | – | – | – | – | – | –
CC(=O)c1c([S+]([O-])Cc2ccccc2)nc2c(Br)ccc(Cl)c2c1O (stereo not drawn) [Compound 53, 1-(2-(benzylsulfinyl)-8-bromo-5-chloro-4-hydroxyquinolin-3-yl)ethan-1-one] | > 2000 nM | > 2000 nM | > 2000 nM | > 2000 nM | > 2000 nM | > 10000 nM | > 2000 nM | > 2000 nM | > 2000 nM | > 2000 nM | – | – | – | – | – | – | – | – | –
CC(=O)c1c([S+]([O-])c2ccc(Br)cc2)[nH]c2c(Br)ccc(Cl)c2c1=O (stereo not drawn) [Compound 17, 3-acetyl-8-bromo-2-((4-bromophenyl)sulfinyl)-5-chloroquinolin-4(1H)-one] | > 2000 nM | > 2000 nM | > 2000 nM | > 2000 nM | > 2000 nM | > 10000 nM | > 2000 nM | > 2000 nM | > 2000 nM | > 2000 nM | – | – | – | – | – | – | – | – | –
CC(=O)c1c([S+]([O-])Cc2ccc(S(F)(F)(F)(F)F)cc2F)[nH]c2c(Br)ccc(Cl)c2c1=O (stereo not drawn) [Compound 69, 3-acetyl-8-bromo-5-chloro-2-((2-fluoro-4-(pentafluoro-16-sulfanyl)benzyl)sulfinyl)quinolin-4(1H)-one] | 1040 nM | 920 nM | 1520 nM | 1910 nM | 1420 nM | > 10000 nM | > 2000 nM | > 2000 nM | 1770 nM | 1540 nM | – | – | – | – | – | – | – | – | –
CC(=O)c1c([S+]([O-])Cc2ccc(C(=O)c3ccccc3)cc2)[nH]c2c(Br)ccc(Cl)c2c1=O (stereo not drawn) [Compound 63, 3-acetyl-2-((4-benzoylbenzyl)sulfinyl)-8-bromo-5-chloroquinolin-4(1H)-one] | > 2000 nM | > 2000 nM | > 2000 nM | > 2000 nM | > 2000 nM | > 10000 nM | > 2000 nM | > 2000 nM | > 2000 nM | > 2000 nM | – | – | – | – | – | – | – | – | –
CC(=O)c1c(Sc2ccccc2)[nH]c2c(Br)ccc(Cl)c2c1=O [Compound 12, 3-acetyl-8-bromo-5-chloro-2-(phenylthio)quinolin-4(1H)-one] | > 2000 nM | > 2000 nM | > 2000 nM | > 2000 nM | > 2000 nM | > 10000 nM | > 2000 nM | > 2000 nM | > 2000 nM | > 2000 nM | – | – | – | – | – | – | – | – | –
Cc1cc(C[S+]([O-])c2[nH]c3c(Cl)ccc(Cl)c3c(=O)c2C(=O)c2ccccc2)no1 (stereo not drawn) [Compound 88, 3-benzoyl-5,8-dichloro-2-(((5-methylisoxazol-3-yl)methyl)sulfinyl)quinolin-4(1H)-one] | > 2000 nM | – | – | – | – | – | – | – | – | – | > 2000 nM | > 2000 nM | > 2000 nM | > 2000 nM | > 10000 nM | > 2000 nM | > 2000 nM | > 2000 nM | > 2000 nM
CC(=O)c1c([S+]([O-])CC#N)[nH]c2c(Br)ccc(Cl)c2c1=O (stereo not drawn) [Compound 65, 2-((3-acetyl-8-bromo-5-chloro-4-oxo-1,4-dihydroquinolin-2-yl)sulfinyl)acetonitrile] | > 2000 nM | > 2000 nM | > 2000 nM | > 2000 nM | > 2000 nM | > 10000 nM | > 2000 nM | > 2000 nM | > 2000 nM | > 2000 nM | – | – | – | – | – | – | – | – | –
